Data reported in patent publication US10689354B2, “Aminoazole derivative” (Teijin Pharma Limited, priority 2015, dated 2020).

Experiments:
[1] = target: T1, androgen receptor (AR-LBD) (Rattus norvegicus, UniProt P15207); assay: Evaluation of androgen receptor affinity (PolarScreen Androgen Receptor Competitor Assay Kit, Red; fluorescence polarization); settings: 22° C. for 5 hours, relative to binding rate of 1 μM DHT, read-out: AR affinity (pEC50) (converted)
T1 construct: 5 μL of 2×AR-LBD/Fluoromone AL Red Complex contained in the kit; purchased Invitrogen
T1 sequence (P15207 651-882 limits assumed): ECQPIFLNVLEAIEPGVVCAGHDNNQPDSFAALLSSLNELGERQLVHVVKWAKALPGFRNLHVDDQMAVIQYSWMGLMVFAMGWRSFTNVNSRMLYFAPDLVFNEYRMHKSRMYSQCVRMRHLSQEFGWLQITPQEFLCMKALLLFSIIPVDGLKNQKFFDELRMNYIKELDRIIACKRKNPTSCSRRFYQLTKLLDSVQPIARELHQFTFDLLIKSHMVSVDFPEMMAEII
Method in brief: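 FP competition: compound + AR-LBD/Fluoromone AL Red tracer complex, 22° C, 5 h. Reference 1 μM DHT binding rate; pEC50 by 4-parameter fit.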

[2] = target: T2, human androgen receptor (Homo sapiens, UniProt P10275); assay: Reporter assay of an androgen receptor responsive sequence (luciferase, transiently transfected HEK293 cells); type: cell-based; settings: 24 hours incubation, relative to activity of 100 nM DHT, read-out: AR transcriptive activity (pEC50) (converted)
T2 construct: expressed in transfected cells; host or cells: HEK293
T2 sequence (P10275 1-920): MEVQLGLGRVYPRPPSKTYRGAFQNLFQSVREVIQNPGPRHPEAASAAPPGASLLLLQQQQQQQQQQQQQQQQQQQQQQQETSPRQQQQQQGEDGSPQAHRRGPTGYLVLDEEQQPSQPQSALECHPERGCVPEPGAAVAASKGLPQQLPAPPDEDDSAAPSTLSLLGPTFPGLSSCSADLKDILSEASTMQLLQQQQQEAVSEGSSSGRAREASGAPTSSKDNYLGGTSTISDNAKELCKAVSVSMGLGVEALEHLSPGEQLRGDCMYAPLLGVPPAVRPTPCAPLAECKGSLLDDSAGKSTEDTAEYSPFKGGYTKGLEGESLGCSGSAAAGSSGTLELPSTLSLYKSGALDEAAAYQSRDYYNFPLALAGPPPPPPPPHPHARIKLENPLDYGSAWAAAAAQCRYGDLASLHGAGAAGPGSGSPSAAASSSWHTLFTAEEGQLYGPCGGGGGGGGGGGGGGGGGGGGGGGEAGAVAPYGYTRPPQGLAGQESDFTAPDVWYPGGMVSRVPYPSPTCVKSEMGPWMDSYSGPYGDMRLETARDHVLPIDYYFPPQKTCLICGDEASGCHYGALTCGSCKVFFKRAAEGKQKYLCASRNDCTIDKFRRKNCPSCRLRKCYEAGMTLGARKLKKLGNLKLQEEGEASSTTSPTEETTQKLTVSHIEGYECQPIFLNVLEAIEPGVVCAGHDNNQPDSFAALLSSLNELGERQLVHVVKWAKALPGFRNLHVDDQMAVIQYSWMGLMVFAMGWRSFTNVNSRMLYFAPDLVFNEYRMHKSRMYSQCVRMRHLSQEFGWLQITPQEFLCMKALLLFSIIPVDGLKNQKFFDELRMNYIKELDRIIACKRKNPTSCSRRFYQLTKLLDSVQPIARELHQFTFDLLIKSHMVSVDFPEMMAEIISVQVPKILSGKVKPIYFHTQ
Method in brief: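 Agonism scored as pEC50, fitted by 4-parameter curve against the response to 100 nM DHT, from dual-luciferase readout after 24 h compound treatment. Cells were HEK293 co-transfected (3 h) with human AR expression vector, androgen-responsive firefly reporter and Renilla control, in charcoal-stripped serum.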

Row | Structure (SMILES) | EC50 [1] [nM] | EC50 [2] [nM]
1 | Cc1sc(N(Cc2ccc3c(c2)C(=O)CCO3)c2ccc(C#N)cc2)nc1C(=O)NS(C)(=O)=O [Compound 138, 2-[4-cyano-N-[(4-oxochroman-6-yl)methyl]anilino]-5-methyl-N-methylsulfonyl-thiazole-4-carboxamide] | 100 | 251
2 | Cc1sc(N(CCc2cccc(Cl)c2)c2ccc(C#N)cc2)nc1C(=O)NS(C)(=O)=O [Compound 139, 2-[N-[2-(3-chlorophenyl)ethyl]-4-cyano-anilino]-5-methyl-N-methylsulfonyl-thiazole-4-carboxamide] | 79.4 | 1580
3 | Cc1sc(N(CCc2ccccc2Cl)c2ccc(C#N)cc2)nc1C(=O)NS(C)(=O)=O [Compound 140, 2-[N-[2-(2-chlorophenyl)ethyl]-4-cyano-anilino]-5-methyl-N-methylsulfonyl-thiazole-4-carboxamide] | 100 | 794
4 | Cc1sc(N(Cc2ccc(-c3ccc(F)cc3)cc2)c2ccc(C#N)cc2)nc1C(=O)NS(C)(=O)=O [Compound 141, 2-[4-cyano-N-[[4-(4-fluorophenyl)phenyl]methyl]anilino]-5-methyl-N-methylsulfonyl-thiazole-4-carboxamide] | 50.1 | 316
5 | Cc1sc(N(CCc2ccc(Cl)cc2)Cc2cccc(F)c2)nc1C(=O)NS(C)(=O)=O [Compound 143, 2-[2-(4-chlorophenyl)ethyl-[(3-fluorophenyl)methyl]amino]-5-methyl-N-methylsulfonyl-thiazole-4-carboxamide] | 25.1 | 50.1
6 | Cc1sc(N(CCc2ccc(Cl)cc2)Cc2cccc(Cl)c2)nc1C(=O)NS(C)(=O)=O [Compound 144, 2-[2-(4-chlorophenyl)ethyl-[(3-chlorophenyl)methyl]amino]-5-methyl-N-methylsulfonyl-thiazole-4-carboxamide] | 25.1 | 63.1
7 | Cc1sc(N(CCc2ccc(Cl)cc2)Cc2cccc(OC(F)(F)F)c2)nc1C(=O)NS(C)(=O)=O [Compound 145, 2-[2-(4-chlorophenyl)ethyl-[[3-(trifluoromethoxy)phenyl]methyl]amino]-5-methyl-N-methylsulfonyl-thiazole-4-carboxamide] | 50.1 | 316
8 | Cc1sc(N(CCc2cccnc2)Cc2ccccc2)nc1C(=O)NS(C)(=O)=O [Compound 147, 2-[benzyl-[2-(3-pyridyl)ethyl]amino]-5-methyl-N-methylsulfonyl-thiazole-4-carboxamide] | > 2000 | > 10000
9 | Cc1sc(N(CCc2ccc(F)c(F)c2)Cc2ccccc2)nc1C(=O)NS(C)(=O)=O [Compound 148, 2-[benzyl-[2-(3,4-difluorophenyl)ethyl]amino]-5-methyl-N-methylsulfonyl-thiazole-4-carboxamide] | 25.1 | 100
10 | Cc1sc(N(Cc2ccc(Cl)cn2)c2ccc(C#N)cc2)nc1C(=O)NS(C)(=O)=O [Compound 152, 2-[N-[(5-chloro-2-pyridyl)methyl]-4-cyano-anilino]-5-methyl-N-methylsulfonyl-thiazole-4-carboxamide] | 200 | 100
11 | Cc1sc(N(Cc2ccc(Br)cn2)c2ccc(C#N)cc2)nc1C(=O)NS(C)(=O)=O [Compound 153, 2-[N-[(5-bromo-2-pyridyl)methyl]-4-cyano-anilino]-5-methyl-N-methylsulfonyl-thiazole-4-carboxamide] | 100 | 50.1
12 | Cc1sc(N(Cc2ccc(C(F)(F)F)nc2)c2ccc(C#N)cc2)nc1C(=O)NS(C)(=O)=O [Compound 154, 2-[4-cyano-N-[[6-(trifluoromethyl)-3-pyridyl]methyl]anilino]-5-methyl-N-methylsulfonyl-thiazole-4-carboxamide] | 200 | 200
13 | Cc1sc(N(Cc2ccc(C(F)F)c(F)c2)c2ccc(C#N)cc2)nc1C(=O)NS(C)(=O)=O [Compound 155, 2-[4-cyano-N-[[4-(difluoromethyl)-3-fluoro-phenyl]methyl]anilino]-5-methyl-N-methylsulfonyl-thiazole-4-carboxamide] | 31.6 | 15.8
